The values that follow come from ChEMBL document CHEMBL1141251, “Anthelmintic macrolactams from Nonomuraea turkmeniaca MA7364” (2007).

Converted amounts (≈) assume the structure as drawn. The source made the active and inactive calls. The rule behind the calls is not given here.

The subject of experiment [1] is Haemonchus contortus. As to the kind of experiment: Anthelmintic activity against Haemonchus contortus assessed as reduction in L3 larval motility. It counts as functional.
For experiment [2], the system named is Heligmosomoides polygyrus. As to the kind of experiment: Anthelmintic activity in Heligmosomoides polygyrus infected Swiss Webster mouse assessed as reduction in worm count at 50 mg/kg, sc on day 3 relative to control. The experiment is classed as functional.

The term EC90 denotes the concentration needed for an effect of 90%. Take `CCC1CCCCCC[C@H](O[C@@H]2O[C@@H](C)[C@@H](O)[C@@H](NC)[C@H]2O)[C@@H](C)C(=O)NCCC1` (some centres undefined): the EC90 in experiment [1] came out at 15 µg/mL (≈ 35 µM). Moreover, the result in experiment [2] was inactive.
As for `CCC1CCCNC(=O)[C@H](C)[C@@H](O[C@@H]2O[C@@H](C)[C@@H](O)[C@@H](NC)[C@H]2O)CCC(C)CCC1` (some centres undefined), the 90% effect concentration (EC90) in experiment [1] amounted to 29 µg/mL (≈ 65.5 µM). The Activity in experiment [2] (route subcutaneous) was found to be 42%.
